Patent publication US20250120902A1, “POSTBIOTIC FERMENT COMPOSITION FOR ROOT, SCALP, AND HAIR CARE AND METHOD OF PREPARING AND USING THE” (THE ROOTIST INC., priority 2023, published 2025)
“And” between values parts separate entries of the source, which are not always exact repeats. Equal values may be shown once.

System: 3D hair follicle organoids (HFDPC and HEKn cells)
Test: Hair follicle organoid growth test
Assay type: cell-based, Human
Details: 1 μM
Source text: Human Primary Dermal Papilla Cells (HFDPC) were collected from a person and provided by Kyungpook National University. Human Primary Epidermal Keratinocytes, neonatal foreskin (HEKn) cells were purchased from ATCC. […] The hair follicle organoid growth test aims to mass-produces hair follicle organoids by proliferating dermal papilla cells isolated from adult hair tissue in vitro, mixing them with keratinocytes, and then co-culturing them on a specially designed particle pattern substrate ([…], 150 spheroids/well). The experiment enables the assessment of the sample's impact on hair growth by monitoring changes in the diameter of keratinocyte pillars within the developed hair follicle organoid. In this test, to differentiate and validate the growth of HFDPC and HEKn cells, HFDPC cells were stained with Cell tracker CM-DilTM and HEKn cells were stained with Cell tracker Green CMFDATM. Stained HFDPC cells underwent filtration using a 15 μm strainer before being combined with DMEM medium to yield a density of 5×10^4 cells/well. Similarly, HEKn cells were adjusted to a density of 3×10^4 cells/well. […] 4) The test result measurements were initially analyzed using the Linear Mixed Model (LMM), which accounts for the random effects of each well. However, due to the lack of normality, the data were re-analyzed using the Generalized Linear Mixed Model (GLMM), which is suitable for non-normal data. […]

Nc1cc(N2CCCCC2)nc(N)[n+]1[O-] [Minoxidil, minoxidil]
Hair follicle organoid growth rate (day 3, compared to the untreated group (100%)): 114.67% and 114.67 ± 5.69%
hair follicle organoid diameter (day 3, estimated mean ± standard deviation): 25.77 ± 1.28 μm
